Laboratory results as given in EP2201949A1 (World Trade Import-Export, WTIE A.G., priority 2007, dated 2009).

Experiments:
gout arthritis = assay type: in vivo, female Wistar rats; settings: for Global anti-inflammatory and analgesic activity expressed in CT AUC: through 5 hours of assessment; for effect of used dose on walking capability / relaxation of the animals: rat, in vivo
Source text: PIFIR experimental model is a preclinical model wherein gout arthritis is possible to be determined in a rodent and the anti-inflammatory and analgesic efficacy of several drugs in animals with this alteration is compared. This experimental model has some important advantages regarding other preclinical methodologies: a) an alteration which clinically affects to humans is established in the rodent: gout type arthritis; b) temporary course of anti-inflammatory and analgesic effect may be determined along […] in the same experimental subject, without producing rodent conditioning factor or learning, being this a significant disadvantage in other experimental models; c) less test drug is consumed compared with other experimental models; d) anti-inflammatory and analgesic effect assessment is performed by computer and not depending on sometimes subjective observations.
Experiments were performed by using female Wistar rats having a weight of about 180 to 200 g. Animals were kept in a room with alternate light/darkness cycles. Food was withdrawn from rats twelve hours before experimentation, with water ad-libitum. All experiments were carried out during light time, the animals being used only once.
Animals were anesthesized in a glass desiccator saturated with […]. Gout arthritis was induced by applying a 0.05 ml intra-articular uric acid injection suspended in mineral oil in the right anterior limb, exactly on the femoral-tibio-rotular joint. A 1 ml glass syringe was used for intra-articular injection with a No. 22 4 mm long needle. An electrode was fixed immediately later in every anterior leg between the plantar calluses. Rats were left to recover from anesthesia and they were enclosed in a 30 cm diameter stainless steel rotary cylinder. Cylinder was rotated at 4 rpm, forcing to the rats to walk during 2 min every half hour, during 5 hours after total dysfunction.
Contact time was the measured variable at every anterior leg from the rats in the cylinder. When electrode is in contact with the cylinder a circuit is closed and the contact time ratio between injured to uninjured legs was registered in a computer.
Temporary courses for every treatment were determined during 5 continuous hours, using a "n" of 6 rats per treatment.

[1] = cited from earlier work
[2] = each compound 177.8 mg/kg, alone or combined
[3] = after being orally administered

| SMILES | Global anti-inflammatory and analgesic activity expressed in CT AUC (gout arthritis; [2]) | time of maximum effect after delivery (gout arthritis; each compound 177.8 mg/kg, single dose, alone or combined, CT over 5 hours) | Maximum effect (anti-inflammatory and analgesic effect) (gout arthritis; each compound 177.8 mg/kg, single dose, alone or combined, temporary course (CT) over 5 hours, n = 6 rats) | effect of used dose on walking capability / relaxation of the animals (gout arthritis) | beginning of pharmacological action [1, 3] | total therapeutic action duration [1, 3] | half-life ([1]; in vivo) |
| --- | --- | --- | --- | --- | --- | --- | --- |
| C[C@H]1C[C@H]2[C@@H]3CCC4=CC(=O)C=C[C@]4(C)[C@@]3(F)[C@@H](O)C[C@]2(C)[C@@]1(O)C(=O)CO [Betamethasone] | 31.6 ± 10.8 ua | 4.5 h | 24.0 ± 11.9% | did not affect the walking rat capability |  |  |  |
| COc1ccccc1OCC(O)COC(N)=O (stereo not drawn) [Methocarbamol] | 48.8 ± 21.0 ua |  |  | slight relaxation effect | ≤ 30 minutes | about 24 hours | about 14 hours |
